Measured values from patent US20030199671A1, “Binding molecules for Fc-region polypeptides” (priority 2001, published 2003).
Positions of bridges follow the written chain, without caps; N, C: chain ends. Residues, ends and D or L forms follow the SMILES beside them.

Columns and labels:
human IgG = test: DX253 column cycling with IgG spiked cell culture media
Description: DX253 peptide was immobilized onto NHS-activated 4 Fast Flow to a ligand density of 2.9 μmole/ml as determined by quantitative amino acid analysis. This affinity resin was packed into a 4.6 mm×6 cm (internal diam.×length, 1.0 ml bed volume) PEEK column (Isolation Technologies, Inc., 5050IP-08046-006-20).
Human IgG was spiked into fresh cell culture media (DMEM) containing 10% fetal bovine serum (ultra low) to 0.5 mg/ml. 2 ml (1.0 mg IgG) was loaded onto the column which was pre-equilibrated with PBS, pH 7.2. Loading was performed at 0.21 ml/minute (75 cm/hour) and all subsequent steps (wash, elution and cleaning) were performed at 0.42 ml/minute (150 cm/hour). Unbound sample was washed to baseline with PBS, pH 7.2, followed by elution with 0.1M citrate, pH 3.0, wash with PBS, pH 7.2, cleaning with 3M guanidine-HCl, 20 mM phosphate, pH 7.2 and re-equilibration back into PBS, pH 7.2. A total of 19 series of 5 cycles each (95 cycles total) were run. […] This procedure was used for cycles 1-25, 27-65, 67-85, and 87-95.

IgG4 = IgG4 (Homo sapiens, UniProt P01861); test: Competition between synthetic peptides and Protein A for Fc binding; parameters: the individual human plasma IgG isoforms: IgG1, IgG2, IgG3, or IgG4; purchased Calbiochem; host or cells: human plasma; key: NB: no detected binding.; ?: partial decrease in anisotropy with added competitor; conditions: 5 mg/ml protein A
Description: Cross-competition studies between peptides were performed using 20 nM fluorescein-labeled peptide and 1-2 μM IgG1, IgG2, IgG3, or IgG4 in the presence and absence of a maximum of 100 μM unlabeled peptide or 5 mg/ml protein A.
This is consistent with the fact that Protein A is known not to bind human IgG3.

human Fc fragments = test: Mini-chromatography column capture from PBST; assay type: binding; conditions: 350 μl column, Fc spiked into PBST, pH 7.2
Description: (§1) For these experiments, 350 μl columns (3×50 mm) were packed with each media. The columns were tested with human Fc fragments or human IgG1 (Calbiochem, 401104 and 400120 respectively) spiked into PBST, pH 7.2 at a concentration of 0.5 g/l. 65 μg of Fc was loaded onto each column. After loading, the columns were washed with PBST, pH 7.2, eluted with 30 mM H3PO4, 150 mM NaCl, pH 2.0 and cleaned with 0.1M CAPS, pH 11.5 buffer (3-[Cyclohexylamino]-1-propane-sulfonic acid). Fractions collected were immediately neutralized to pH ˜7.2 with 2.0 M Tris, pH 8.0. All column operations were conducted at 200 μl/min (170 cm/hr).

hIgG1 = target: T1, hIgG1 (Homo sapiens, UniProt P01857); test: Mini-chromatography column binding (dynamic conditions); conditions: 350 μl column, human IgG1 spiked into PBST, pH 7.2
T1 construct: purchased Calbiochem 400120; host or cells: human myeloma patients
Description: Thus, 250 μg of target (hIgG1, hIgG2, hIgG3, hIgG4, goat IgG and bovine IgG) at 0.250 mg/ml in PBST, pH 7.2 or TBST, pH 7.3 was loaded onto a 350 μl column (3×50 mm) run at 0.200 ml/min. flowrate (170 cm/hr). Flowthrough, elution and cleaning fractions were collected and assayed for total protein recovery by size-exclusion HPLC. Percentage mass balance was also determined to be 90-100% on average.
as §1

human IgG1 = target: T2, human IgG1 (Homo sapiens, UniProt P01857); test: Column capture from conditioned CHO cell culture supernatant containing 5% fetal bovine serum; assay type: binding; conditions: SEC-HPLC; load 93% monomer
T2 construct: all human subtypes derived from myeloma patients; purchased Calbiochem 400120; host or cells: myeloma patients
Description: Human IgG1 (93% monomer) was spiked into conditioned CHO media to 50 μg/ml and 5 ml (250 μg total) was loaded onto a 350 μl mini-column as described above. The column was washed to baseline with PBST, pH 7.2 and the flowthrough fraction collected. Bound IgG was eluted with 0.1M sodium bicarbonate buffer, pH 9.0, and the column cleaned with 0.1M CAPS, pH 11.5. The eluted and clean fractions were quickly neutralized to ˜pH 7.2 and assayed for mass recovery by SEC-HPLC. Thus, an 80% recovery (98% monomer) was obtained in the eluted fraction. The column load, flowtbrough, elution and cleaning fractions were further analyzed by electrophoresis (SDS-PAGE), Coomassie stain and Western analysis for the presence of human and bovine IgG.

Ac-GDRRACSRDWSGALVWCAGHEPGPEGGGK-NH2 (not fully specified (bridges); printed as Ac-GDRRACSRDWSGALVWCAGHEPGPEGGGK-NH2; cysteine pairing not given here) [DX253]
% Relative Performance (elution peak area vs cycle 1) (human IgG; Cycling Run No. 1, cycling run 1): 100% | % Relative Performance (elution peak area vs cycle 1) (human IgG; Cycling Run No. 10, cycling run 10): 97.6% | % Relative Performance (elution peak area vs cycle 1) (human IgG; Cycling Run No. 20, cycling run 20): 97.9% | % Relative Performance (elution peak area vs cycle 1) (human IgG; Cycling Run No. 30, cycling run 30): 102.3% | % Relative Performance (elution peak area vs cycle 1) (human IgG; Cycling Run No. 40, cycling run 40): 103.1% | % Relative Performance (elution peak area vs cycle 1) (human IgG; Cycling Run No. 51, cycling run 51): 102.0% | % Relative Performance (elution peak area vs cycle 1) (human IgG; Cycling Run No. 60, cycling run 60): 103.1% | % Relative Performance (elution peak area vs cycle 1) (human IgG; Cycling Run No. 70, cycling run 70): 102.6% | % Relative Performance (elution peak area vs cycle 1) (human IgG; Cycling Run No. 81, cycling run 81): 102.1% | % Relative Performance (elution peak area vs cycle 1) (human IgG; Cycling Run No. 90, cycling run 90): 101.8%

CC(=O)NCC(=O)N[C@@H](CC(=O)O)C(=O)N[C@@H](CC(=O)O)C(=O)N[C@@H](CC(=O)O)C(=O)N[C@@H](Cc1c[nH]cn1)C(=O)N[C@H]1CSSC[C@@H](C(=O)N2CCC[C@H]2C(=O)N[C@@H](Cc2c[nH]cn2)C(=O)NCC(=O)N[C@@H](CCC(=O)O)C(=O)N2CCC[C@H]2C(=O)NCC(=O)N2CCC[C@H]2C(=O)N[C@@H](CCC(=O)O)C(=O)NCC(=O)NCC(=O)NCC(=O)N[C@@H](CCCCN)C(N)=O)NC(=O)[C@H](CCC(=O)O)NC(=O)[C@H](CO)NC(=O)[C@H](CC(N)=O)NC(=O)[C@H](Cc2ccccc2)NC(=O)[C@H](Cc2c[nH]c3ccccc23)NC(=O)[C@H](CCC(=O)O)NC(=O)[C@H](CCCNC(=N)N)NC(=O)[C@H](Cc2ccccc2)NC(=O)[C@H](Cc2c[nH]c3ccccc23)NC(=O)[C@H](Cc2ccc(O)cc2)NC1=O [DX252] (Ac-GDDDHCYWFREWFNSECPHGEPGPEGGGK-NH2; disulfide 6-17 (inferred))
Competition between labeled peptide and Protein A, IgG4 (IgG4): NB | Capture efficiency, Fc (human Fc fragments): 70% | Capture efficiency, IgG1 (hIgG1): 80%

CC[C@H](C)[C@@H]1NC(=O)[C@H](CC(C)C)NC(=O)[C@H](CCC(=O)O)NC(=O)CNC(=O)[C@H](Cc2c[nH]c3ccccc23)NC(=O)[C@H]([C@@H](C)O)NC(=O)[C@H]([C@@H](C)O)NC(=O)[C@H](Cc2ccc(O)cc2)NC(=O)[C@H](C(C)C)NC(=O)[C@@H](NC(=O)[C@H](CCSC)NC(=O)[C@H](Cc2c[nH]cn2)NC(=O)[C@H](CC(=O)O)NC(=O)[C@H](CC(=O)O)NC(=O)CNC(C)=O)CSSC[C@@H](C(=O)N[C@@H](CC(=O)O)C(=O)N[C@@H](CC(N)=O)C(=O)N[C@@H](Cc2c[nH]cn2)C(=O)N[C@@H](CCC(=O)O)C(=O)N2CCC[C@H]2C(=O)NCC(=O)N2CCC[C@H]2C(=O)N[C@@H](CCC(=O)O)C(=O)NCC(=O)NCC(=O)NCC(=O)N[C@@H](CCCCN)C(N)=O)NC(=O)[C@H](Cc2c[nH]c3ccccc23)NC1=O [DX249] (Ac-GDDHMCVYTTWGELIWCDNHEPGPEGGGK-NH2; disulfide 6-17)
Monomer in the eluted fraction (human IgG1): 98%
